Reference: BigSolDB 2.1

## COc1cc(Cc2cnc(N)nc2N)cc(OC)c1OC
In acetonitrile, 293.15 K
  solubility (mole fraction): 0.00035
In acetonitrile, 298.45 K
  solubility (mole fraction): 0.000437
In acetonitrile, 303.45 K
  solubility (mole fraction): 0.000534
In acetonitrile, 308.15 K
  solubility (mole fraction): 0.000664
In acetonitrile, 312.95 K
  solubility (mole fraction): 0.000809
In acetonitrile, 318.65 K
  solubility (mole fraction): 0.00103
In acetonitrile, 322.65 K
  solubility (mole fraction): 0.00127
In ethanol, 293.15 K
  solubility (mole fraction): 0.00071
In ethanol, 298.45 K
  solubility (mole fraction): 0.00092
In ethanol, 303.45 K
  solubility (mole fraction): 0.00112
In ethanol, 308.15 K
  solubility (mole fraction): 0.00134
In ethanol, 312.95 K
  solubility (mole fraction): 0.00173
In ethanol, 318.65 K
  solubility (mole fraction): 0.00226
In ethanol, 322.65 K
  solubility (mole fraction): 0.00304
In ethyl acetate, 293.15 K
  solubility (mole fraction): 0.000276
In ethyl acetate, 298.45 K
  solubility (mole fraction): 0.000332
In ethyl acetate, 303.45 K
  solubility (mole fraction): 0.000398
In ethyl acetate, 308.15 K
  solubility (mole fraction): 0.000481
In ethyl acetate, 312.95 K
  solubility (mole fraction): 0.000606
In ethyl acetate, 318.65 K
  solubility (mole fraction): 0.000773
In ethyl acetate, 322.65 K
  solubility (mole fraction): 0.000966
In isopropanol, 293.15 K
  solubility (mole fraction): 0.000227
In isopropanol, 298.45 K
  solubility (mole fraction): 0.000294
In isopropanol, 303.45 K
  solubility (mole fraction): 0.000434
In isopropanol, 308.15 K
  solubility (mole fraction): 0.000543
In isopropanol, 312.95 K
  solubility (mole fraction): 0.000764
In isopropanol, 318.65 K
  solubility (mole fraction): 0.00106
In isopropanol, 322.65 K
  solubility (mole fraction): 0.00141
In water, 293.15 K
  solubility (mole fraction): 2e-05
In water, 298.45 K
  solubility (mole fraction): 2.49e-05
In water, 303.45 K
  solubility (mole fraction): 3.02e-05
In water, 308.15 K
  solubility (mole fraction): 3.68e-05
In water, 312.95 K
  solubility (mole fraction): 4.68e-05
In water, 318.65 K
  solubility (mole fraction): 6.05e-05
In water, 322.65 K
  solubility (mole fraction): 7.14e-05
